Laboratory results from patent US9549905B2, “Treatment of inflammatory and infectious skin disorders” (The Regents of the University of California, priority 2011, dated 2017).
“And” between values parts separate entries of the source, which are not always exact repeats. Equal values may be shown once.

Assays:
[1] = test system: Propionibacterium acnes ATCC strain 6919; test: Colony Forming Unit (CFU) assay of P. acnes over 10 days; assay type: cell-based; conditions: for bactericidal activity in comparison at equal concentration: 75 μg/mL, FIG. 2D; for antimicrobial activity over time (words): CFU assay, irrespective of concentration
Description: FIG. 2A. […] Bacterial growth was assessed in terms of the growth factor of P. acnes (Y-axis), determined by the change in the number of bacteria compared to baseline control (set at 1 on Day 0). Concentrations were obtained over a 10-day period and plotted logarithmically. FIG. 2B. Colony Forming Unit (CFU) assays of P. acnes incubated with Benzoyl Peroxide (BPO). FIG. 2C. […] FIG. 2D. […] Having described the invention in general terms, the following specific example is offered for purpose of illustration and for illustration only, and no intention to limit the invention is to be inferred there from. […] Resveratrol and benzoyl peroxide were obtained from Sigma-Aldrich St. Louis, Mo. […] Propionibacterium acnes ATCC […] strain 6919 was grown anaerobically at 37° C. in Reinforced Clostridial Media (Oxoid) for 3 days and collected in the exponential phase of growth by centrifugation. Bacteria were washed with pH 7 sodium phosphate buffer supplemented by 0.03% Trypticase Soy Media and quantified by reading with a spectrophotometer at 600 nm and applying a conversion of ˜1×10^8 bacteria=1 absorbance unit. […] Samples were incubated anaerobically at 37° C. for intervals of 1, 2, 3, 7, and 10 days and then plated on brucella agar with 5% sheep blood supplemented with hemin and vitamin K (Remel). […] The results were plotted logarithmically as multiples of the initial concentration, which was designated as 1 at Day 0.

P. acnes [2] = test: Transmission electron microscopy of P. acnes; assay type: cell-based, Propionibacterium acnes; conditions: 1 mg/mL, 24 hours
From the text: FIG. 4A. Electron Microscopy of P. acnes control without stimulus. […] Samples were visualized at 80 kV on a JEOL 100CX electron microscope. Bacteria were magnified according to the scale indicated below the main image, with higher magnification images located in the lower left inset.
This implies cellular lysis and death of the majority of bacterium, leaving only remaining unaffected bacteria to replicate and grow.
Resveratrol induced structural changes in the cell membrane of P. acnes. […] This implies cellular lysis and death of the majority of bacterium, leaving only remaining unaffected bacteria to replicate and grow.

[3] = test system: IL-12 secretion by primary human monocytes; test: Cytokine IL-12 assay in monocytes stimulated with P. acnes sonicate; assay type: cell-based; conditions: compared with 1% DMSO / untreated
From the text: FIG. 3A. Cytokine IL-12 Assay.
The anti-inflammatory properties of resveratrol, benzoyl peroxide and the combination of resveratrol and benzoyl peroxide are exemplified by the cytokine IL-12 assay. […] To address this, we next investigated the cytotoxic effects of the various treatment groups.
To address this, we next investigated the cytotoxic effects of the various treatment groups.

primary human monocytes = test: MTS cytotoxicity assay; assay type: cell-based; conditions: for monocytes killed: 10 μg/mL
Description: FIG. 3B. Cytotoxicity Assay. […] The percentage of cells still viable after 16 hour incubation (compared to 1% DMSO control) were assessed (Y-axis) by measuring absorbance of the sample, which is proportional to the number of viable cells.
The cytotoxicity of resveratrol, benzoyl peroxide, and the combination of resveratrol and benzoyl peroxide was also assessed. (see FIG. 3B) We analyzed the cell viability of human monocytes using the MTS cytotoxicity assay. […] The direct cell cytotoxicity of benzoyl peroxide may explain the decrease in IL-12 activity, more a result of direct cell death, than actual anti-inflammatory properties of benzoyl peroxide.
We analyzed the cell viability of human monocytes using the MTS cytotoxicity assay.

P. acnes [4] = test: P. acnes growth inhibition, 48 hour incubation and plating at different dilutions; assay type: cell-based, Propionibacterium acnes
Description: Serial dilutions of P. acnes plated without treatment provided qualitative comparisons to experimental groups treated with RES. Significant growth inhibition of P. acnes was first noted at 50 μg/mL and was dose dependent. […] (FIG. 2A).

Compound	fold more bactericidal than RES ([1]; 50 μg/mL, at 24 hours)	bactericidal activity in comparison at equal concentration ([1]; 10-day period)	antimicrobial activity over time (words) [1]	antimicrobial activity over time (words) ([1]; listed as benzoyl peroxide)	lowest dose with bactericidal activity ([1]; data not shown)	structural changes of P. acnes (P. acnes [2])	concentration from which IL-12 secretion was diminished [3]	monocytes killed (primary human monocytes; 16 hour incubation, relative to 1% DMSO control)	lowest concentration toxic to monocytes (primary human monocytes; human, 16 h)	growth equivalent to dilution of untreated P. acnes plates (P. acnes [4]; 50 μg/mL, 48 hours)	concentration at which significant growth inhibition of P. acnes was first noted (P. acnes [4]; 48 hours incubation, about 1.33×10^6 bacteria)	concentrations with sustained and dose dependent bactericidal effect ([1]; 10-day period, FIG. 2A)	monocytes killed (primary human monocytes; human, 16 h)
O=C(OOC(=O)c1ccccc1)c1ccccc1 [BPO, Benzoyl Peroxide]	~1000 ×	short but immediate bactericidal activity	minimal effect on bacterial growth after 24 hours	virtually no activity remaining after 48 hours	25 µg/mL	structurally identical to control	≥ 2.5 µg/mL	greater than 90%	5 µg/mL				
Oc1ccc(C=Cc2cc(O)cc(O)c2)cc1 [RES, 3,5,4′-trihydroxystilbene]		slow but sustained bactericidal activity	slow but sustained antimicrobial response			loss of membrane definition due to intramembranous edema and loss of well defined extracellular fimbrial structures	≥ 10 µg/mL			~1000 × dilution	50 µg/mL	75 µg/mL and 100 µg/mL	approximately 35%
